In US7473783B2, “Bicyclic pyrazolo protein kinase modulators” (SGX Pharmaceuticals, Inc., priority 2003, dated 2009):
Substitutions are numbered along the chain they refer to.

Legend:
Type in all cases: biochemical
[1] = biological target: T1, autophosphorylated FLT3 kinase domain (FLT3KD) (Homo sapiens, UniProt P36888); test: FLT3 kinase assay (PK/LDH coupled, NADH loss at 340 nm); conditions: 250 μM ATP
T1 construct: purified and autophosphorylated FLT3 kinase domain (FLT3KD); 6xHis (C); made in house; host or cells: baculovirus, SF9 / SF21 insect cells
T1 sequence (P36888 610-943 limits assumed): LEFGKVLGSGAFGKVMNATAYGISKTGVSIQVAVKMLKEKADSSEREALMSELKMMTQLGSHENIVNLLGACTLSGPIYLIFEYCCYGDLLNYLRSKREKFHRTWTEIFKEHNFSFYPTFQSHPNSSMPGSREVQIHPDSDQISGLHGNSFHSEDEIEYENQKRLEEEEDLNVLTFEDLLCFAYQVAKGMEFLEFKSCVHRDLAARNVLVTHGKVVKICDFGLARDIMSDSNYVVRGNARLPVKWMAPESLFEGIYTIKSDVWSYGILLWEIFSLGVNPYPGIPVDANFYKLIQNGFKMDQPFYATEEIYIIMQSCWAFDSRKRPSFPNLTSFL
From the text: Although this example presents the use of the FLT3 kinase domain, the kinase assays may use various forms of FLT3, including, for example, the entire molecule, the kinase domain, or a portion thereof.
Materials : Substrate peptide=Poly (Glu, Tyr) 4:1=poly EY (Sigma P-0275); βNADH (Sigma CAT#N-8129, FW=709.4); 2M MgCl2; 1M HEPES buffer, pH 7.5; Phosphoenolpyruvate=PEP (Sigma CAT#P-7002, FW=234); Lactate dehydrogenase=LDH (Worthington Biochemical CAT#2756); Pyruvate Kinase=PK (Sigma CAT#P-9136); ATP (Sigma CAT#A-3377, FW=551); Greiner 384-well UV star plate; and purified and autophosphorylated FLT3 kinase domain (FLT3KD).
Stock Solutions: 10 mM NADH (7.09 mg/mL in miliQH2O) make fresh daily; 1 mg/mL Poly EY (in miliQH2O) store at −20° C.; 200mM HEPES buffer, pH 7.5 (10 ml 1M stock+40 ml miliQH2O) supplemented with 1 mM DTT; 100 mM MgCl2 (5 mL+95 ml dH2)); 100 mM PEP (23.4 mg/mL in dH2O) store at −20° C.; 10 mM ATP (5.51 mg/mL in dH2O) store at −20° C. (dilute 1 mL into total of 10 mL miliQH2O daily=1 mM ATP working stock); 1000 U/mL PK (U/mg varies with lot) flash-freeze under liquid N2 and store at −80° C.; 1000 U/mL LDH (U/mg varies with lot) flash-freeze under liquid N2 and store at −80° C.
Standard Assay Setup for 384-well format (50 μl reaction): 300 μM NADH; 10 mM MgCl2; 2 mM PEP; 45 U/mL PK; 60 U/mL LDH; 1 mg/mL Poly EY; 2.5 μL test compound (in DMSO); 10 μg/mL autophosphorylated FLT3 kinase domain; 250 μM ATP*; 100 mM HEPES buffer; QS with miliQ dH2O to 50 μL. Positive controls contained DMSO with no test compound. Negative controls contained 5 μl of 0.5M EDTA (50 mM in the assay). The kinase reaction was initiated at time t=0 by the addition of ATP.
The unphosphorylated FLT3KD that was produced required pre-incubation with MgATP to allow for autophosphorylation and full kinase activity. The autophosphorylation reaction was run in 100 mM HEPES buffer, 1 mM DTT, and 1 mg/mL FLT3KD by the addition of ATP and MgCl2 to a final concentration of 2 mM and 10 mM respectively. The reaction was allowed to proceed at room temperature for 90 minutes, and then was quenched by the addition of EDTA to 50 mM. The autophosphorylated protein was then aliquotted and flash frozen in liquid N2 for use.
(§1) The activity was measured by following the time-dependent loss of NADH by absorbance spectroscopy at 340 nm. The linear portion of the resulting progress curve was then be analyzed by linear regression to get the activity in absorbance units/time, reported as the slope of that best fit line (moles/unit time can be calculated from using molar extinction coeffecient for NADH at 340 nm, 6250M^−1cm^−1).
Data was analyzed using the equation: Z′=1−[3*(σ++σ−)/|μ+−μ−|], where μ denotes the mean and σ the standard deviation. The subscript designates positive or negative controls. The Z′ score for a robust screening assay should be ≧0.50. The typical threshold=μ+−3*σ+. Any value that falls below the threshold was designated a “hit.”
The dose response was measured using the equation: y=min+{(max−min)/1+10^[compound]-logIC50)}, where y is the observed initial slope, max is the slope in the absence of inhibitor, min is the slope at infinite inhibitor, and the IC50 is the [compound] that corresponds to ½ the total observed amplitude (Amplitude=max−min). The IC50 is related to the Ki by the following equation: IC50=Ki(1+[ATP]/Km).
To measure modulation, activation, or inhibition of FLT3KD, a test compound was added to the assay at a range of concentrations. Inhibitors may inhibit FLT3KD activity at an IC50 in the micromolar range, the nanomolar range, and, for example, in the subnanomolar range. […]

[2] = biological target: T2, Abl T315I kinase domain, unphosphorylated (Mus musculus, UniProt P00520, T315I); test: Abl T315I kinase assay (PK/LDH coupled, NADH loss at 340 nm); conditions: Table 8; 10 μM ATP; zero phosphorylation state
T2 construct: Purified and unphosphorylated T315I Abl kinase domain (clone 5582d42PPt6p6); made in house; host or cells: E. coli BL21(DE3) pSA0145, phosphatase co-expression plasmid
T2 sequence (P00520 242-493 T315I limits assumed): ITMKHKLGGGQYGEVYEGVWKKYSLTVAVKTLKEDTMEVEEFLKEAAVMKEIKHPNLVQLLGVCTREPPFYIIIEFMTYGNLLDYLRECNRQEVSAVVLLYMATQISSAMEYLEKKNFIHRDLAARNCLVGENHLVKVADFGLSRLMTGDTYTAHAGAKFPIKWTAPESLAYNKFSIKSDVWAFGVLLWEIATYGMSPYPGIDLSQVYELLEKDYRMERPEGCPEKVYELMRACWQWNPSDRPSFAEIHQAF
From the text: (§2) Although this example presents the use of the kinase domain of a mutant form of Abl T315I 0-P, the kinase assays may use various forms of mutant and wild type Abl, including, for example, the entire molecule, the kinase domain, or a portion thereof. The kinases used in the assays may also be of varying phophorylation states. In the present example, a mutant kinase at a zero phosphorylation state was used.
(§3) Materials: Abl substrate peptide=EAIYAAPFAKKK-OH (Biopeptide, SD CA); βNADH (Sigma CAT#N-8129, FW=709.4); 2M MgCl2; 1M HEPES buffer, pH 7.5; Phosphoenolpyruvate=PEP (Sigma CAT#P-7002, FW=234); Lactate dehydrogenase=LDH (Worthington Biochemical CAT#2756); Pyruvate Kinase=PK (Sigma CAT#P-9136); ATP (Sigma CAT#A-3377, FW=551); Greiner 384-well UV star plate; and Purified and unphosphorylated T315I Abl kinase domain (clone 5582d42PPt6p6).
(§4) Stock Solutions: 10 mM NADH (7.09 mg/mL in miliQH2O) make fresh daily; 10 mM Abl substrate peptide (13.4 mg/mL in miliQH2O) store at −20° C.; 100 mM HEPES buffer, pH 7.5 (5 mL 1M stock+45 mL miliQH2O); 100 mM MgCl2 (5 mL 2M MgCl2+95 ml dH2O); 100 mM PEP (23.4 mg/mL in dH2O) store at −20° C.; 10 mM ATP (5.51 mg/mL in dH2O) store at −20° C. (dilute 50 μL into total of 10 mL miliQH2O daily=50 μM ATP working stock); 1000 U/mL PK (U/mg varies with lot) flash-freeze under liquid N2 and store at −80° C.; and 1000 U/mL LDH (U/mg varies with lot) flash-freeze under liquid N2 and store at −80° C.
(§5) Standard Assay Setup for 384-well format (50 μl reaction): 300 μM NADH; 10 mM MgCl2; 2 mM PEP; 45 U/mL PK; 60 U/mL LDH; 200 μM Abl substrate peptide; 2.5 μL test compound (in DMSO); 2 μg/mL Abl kinase domain; 10 μM ATP; 100 mM HEPES buffer; QS with miliQ dH2O to 50 μL; Positive controls contained DMSO with no test compound. Negative controls contained 5 μl of 0.5M EDTA (50 mM in the assay). The dephosphorylated form of the c-Abl T315I mutant were used in the biochemical screening assays. The kinase reaction was initiated at time t=0 by the addition of ATP.
as §1, with “coefficient” for “coeffecient”
(§6) Data was analyzed using the equation: Z′=1-[3*(σ++σ−)/|μ+−μ−|], where μ denotes the mean and σ the standard deviation. The subscript designates positive or negative controls. The Z′ score for a robust screening assay should be ≧0.50. The typical threshold=μ+−3*σ+. Any value that falls below the threshold was designated a “hit”.
(§7) Dose response was analyzed using the equation: y=min+{(max−min)/(1+10^[compound]-logIC50)}, where y is the observed initial slope, max=the slope in the absence of inhibitor, min=the slope at infinite inhibitor, and the IC50 is the [compound] that corresponds to ½ the total observed amplitude (Amplitude=max−min).
(§8) To measure modulation, activation, or inhibition of AblKD, a test compound was added to the assay at a range of concentrations. Inhibitors may inhibit AblKD activity at an IC50 in the micromolar range, the nanomolar range, and, for example, in the subnanomolar range.
(§9) To measure the binding of a compound to Abl or AblKD, a test kit manufactured by Discoverx (Fremont, Calif.), ED—Staurosporine NSIP™ Enzyme Binding Assay Kit (see U.S. Pat. No. 5,643,734) was used.

[3] = biological target: T3, Abl Y393F (Mus musculus, UniProt P00520, Y393F); test: Abl Y393F kinase assay; conditions: Table 8
T3 construct: 2 μg/mL Abl kinase domain; made in house
T3 sequence (P00520 242-493 Y393F limits assumed): T2 sequence (P00520 242-493 T315I limits assumed) with I74T, Y152F
From the text: as §2, §3, §4, §5
as §1, with “coefficient” for “coeffecient”
as §6, §7, §8, §9

SMILES | IC50 ([1]; Table 6) [nM] | IC50 [2] [nM] | IC50 [3] [nM] | also measured
O=C(Nc1nc2[nH]nc(-c3cccc(C(F)(F)F)c3)c2s1)c1ccccc1 | – | – | – | IC50 ([1]; Table 5): 1000 to 10000 nM
CC(C)(C)c1n[nH]c2nc(NC(=O)c3ccccc3)sc12 | 100 to 1000 | – | – | –
O=C(Nc1nc2[nH]nc(-c3ccco3)c2s1)c1ccccc1 | 100 to 1000 | – | – | –
O=C(Nc1nc2[nH]nc(-c3ccccn3)c2s1)c1ccco1 | 100 to 1000 | – | – | –
CC(C)(C)c1n[nH]c2nc(NC(=O)c3ccncc3)sc12 | > 1000 | – | – | –
O=C(Nc1nc2[nH]nc(-c3ccc(Cl)cc3)c2s1)c1ccccc1 [drawing 246] | – | – | – | IC50 ([1]; Table 5): < 1000 nM
O=C(Nc1nc2[nH]nc(-c3ccccc3)c2s1)c1ccncc1 [drawing 248] | – | – | – | IC50 ([1]; Table 5): < 1000 nM
O=C(Nc1nc2[nH]nc(-c3ccccc3)c2s1)c1cccc(Br)c1 [drawing 249] | – | – | – | IC50 ([1]; Table 5): 1000 to 10000 nM
COCCOCC(=O)Nc1nc2[nH]nc(-c3ccccc3)c2s1 [drawing 250] | – | – | – | IC50 ([1]; Table 5): 1000 to 10000 nM
CC(=O)N1CCC(C(=O)Nc2nc3[nH]nc(-c4ccccc4)c3s2)CC1 [drawing 251] | – | – | – | IC50 ([1]; Table 5): 1000 to 10000 nM
O=C(Nc1nc2[nH]nc(-c3ccc(O)cc3)c2s1)C1CC1 [drawing 254] | < 100 | – | – | –
O=C(Nc1nc2[nH]nc(-c3ccccc3Cl)c2s1)C1CC1 [drawing 266] | – | < 500 | < 500 | –
O=C(Nc1nc2[nH]nc(-c3ccccc3Br)c2s1)C1CC1 [drawing 267] | – | < 500 | < 500 | –
COc1ccc(-c2n[nH]c3nc(NC(=O)C4CC4)sc23)cc1 [drawing 271] | – | 500 to 1000 | > 1000 | –

The next lines start with results.

IC50 ([1]; Table 6) [nM] | IC50 [2] [nM] | IC50 [3] [nM] | SMILES | also measured
< 100 | – | – | O=C(Nc1nc2[nH]nc(-c3ccncc3)c2s1)c1ccccc1 | –
< 100 | – | – | O=C(Nc1nc2[nH]nc(-c3ccccc3)c2s1)c1ccno1 | –
– | > 1000 | > 1000 | CC(=O)Nc1nc2[nH]nc(-c3ccccc3Cl)c2s1 | –
– | 500 to 1000 | 500 to 1000 | O=C(Nc1nc2[nH]nc(-c3ccccc3)c2s1)c1cccs1 | –
– | > 1000 | > 1000 | O=C(Nc1nc2[nH]nc(-c3cccc(Br)c3)c2s1)c1ccccc1 | –
– | > 1000 | > 1000 | COCC(=O)Nc1nc2[nH]nc(-c3ccccc3)c2s1 | –
> 1000 | – | – | O=C(Nc1nc2[nH]nc(-c3ccccc3)c2s1)c1cccc(Br)c1 [drawing 259] | –
– | < 500 | < 500 | O=C(Nc1nc2[nH]nc(-c3ccccc3)c2s1)c1ccco1 [drawing 268] | –
